Source: PubChem BioAssay (NCI)
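Cultured in 96-well plates, cells were exposed to test compound for 48 hours across five concentrations. Definition used: TGI = concentration required for complete inhibition of growth.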

Tests used:
Assay in all cases: NCI tumour cell line growth inhibition, 48 h
786-0 renal = test system: 786-0 renal
A498 renal = test system: A498 renal
A549 NSCLC = test system: A549 NSCLC
ACHN renal = test system: ACHN renal
BT-549 breast = test system: BT-549 breast
CAKI-1 renal = test system: CAKI-1 renal
CCRF-CEM leukemia = test system: CCRF-CEM leukemia
COLO 205 colon = test system: COLO 205 colon
DLD-1 colon = test system: DLD-1 colon
DMS 114 small cell lung = test system: DMS 114 small cell lung
DMS 273 small cell lung = test system: DMS 273 small cell lung
DU-145 prostate = test system: DU-145 prostate
EKVX NSCLC = test system: EKVX NSCLC
HCC-2998 colon = test system: HCC-2998 colon
HCT-116 colon = test system: HCT-116 colon
HCT-15 colon = test system: HCT-15 colon
HL-60(TB) leukemia = test system: HL-60(TB) leukemia
HOP-18 NSCLC = test system: HOP-18 NSCLC
HOP-62 NSCLC = test system: HOP-62 NSCLC
HOP-92 NSCLC = test system: HOP-92 NSCLC
HS 578T breast = test system: HS 578T breast
HT29 colon = test system: HT29 colon
IGROV1 ovarian = test system: IGROV1 ovarian
K-562 leukemia = test system: K-562 leukemia
KM12 colon = test system: KM12 colon
KM20L2 colon = test system: KM20L2 colon
LOX IMVI melanoma = test system: LOX IMVI melanoma
LXFL 529 NSCLC = test system: LXFL 529 NSCLC
M14 melanoma = test system: M14 melanoma
M19-MEL melanoma = test system: M19-MEL melanoma
MALME-3M melanoma = test system: MALME-3M melanoma
MCF7 breast = test system: MCF7 breast
MDA-MB-231 breast = test system: MDA-MB-231 breast
MDA-MB-435 = test system: MDA-MB-435
MDA-N = test system: MDA-N
MOLT-4 leukemia = test system: MOLT-4 leukemia
NCI-H226 lung = test system: NCI-H226 lung
NCI-H23 lung = test system: NCI-H23 lung
NCI-H460 lung = test system: NCI-H460 lung
NCI-H522 lung = test system: NCI-H522 lung
NCI/ADR-RES ovarian = test system: NCI/ADR-RES ovarian
OVCAR-3 ovarian = test system: OVCAR-3 ovarian
OVCAR-4 ovarian = test system: OVCAR-4 ovarian
OVCAR-5 ovarian = test system: OVCAR-5 ovarian
OVCAR-8 ovarian = test system: OVCAR-8 ovarian
PC-3 prostate = test system: PC-3 prostate
RPMI-8226 leukemia = test system: RPMI-8226 leukemia
RXF 393 renal = test system: RXF 393 renal
RXF-631 renal = test system: RXF-631 renal
SF-268 CNS = test system: SF-268 CNS
SF-295 CNS = test system: SF-295 CNS
SF-539 CNS = test system: SF-539 CNS
SK-MEL-2 melanoma = test system: SK-MEL-2 melanoma
SK-MEL-28 melanoma = test system: SK-MEL-28 melanoma
SK-MEL-5 melanoma = test system: SK-MEL-5 melanoma
SK-OV-3 ovarian = test system: SK-OV-3 ovarian
SN12C renal = test system: SN12C renal
SNB-19 CNS = test system: SNB-19 CNS
SNB-75 CNS = test system: SNB-75 CNS
SNB-78 CNS = test system: SNB-78 CNS
SR leukemia = test system: SR leukemia
SW-620 colon = test system: SW-620 colon
T-47D breast = test system: T-47D breast
TK-10 renal = test system: TK-10 renal
U251 CNS = test system: U251 CNS
UACC-257 melanoma = test system: UACC-257 melanoma
UACC-62 melanoma = test system: UACC-62 melanoma
UO-31 renal = test system: UO-31 renal
XF 498 CNS = test system: XF 498 CNS

COC(=O)c1ccc2c(c1)C(NC(C)=O)CCc1cc(OC)c(OC)c(OC)c1-2 (centres undefined)
TGI (786-0 renal): 93.3 µM | TGI (A498 renal): 4.27 µM | TGI (A549 NSCLC): > 100 µM | TGI (ACHN renal): > 100 µM | TGI (BT-549 breast): 78.3 µM | TGI (CAKI-1 renal): 77.4 µM | TGI (CCRF-CEM leukemia): > 35.6 µM | TGI (COLO 205 colon): 0.0194 µM | TGI (DLD-1 colon): > 100 µM | TGI (DMS 114 small cell lung): 0.0356 µM | TGI (DMS 273 small cell lung): > 100 µM | TGI (DU-145 prostate): 0.0865 µM | TGI (EKVX NSCLC): > 100 µM | TGI (HCC-2998 colon): 0.706 µM | TGI (HCT-116 colon): 0.391 µM | TGI (HCT-15 colon): > 44.3 µM | TGI (HL-60(TB) leukemia): 0.0285 µM | TGI (HOP-18 NSCLC): > 100 µM | TGI (HOP-62 NSCLC): 52.4 µM | TGI (HOP-92 NSCLC): 13.1 µM | TGI (HS 578T breast): 7.78 µM | TGI (HT29 colon): 1.28 µM | TGI (IGROV1 ovarian): > 41.1 µM | TGI (K-562 leukemia): 28.1 µM | TGI (KM12 colon): 0.219 µM | TGI (KM20L2 colon): < 0.01 µM | TGI (LOX IMVI melanoma): > 96.5 µM | TGI (LXFL 529 NSCLC): > 100 µM | TGI (M14 melanoma): > 31.6 µM | TGI (M19-MEL melanoma): > 100 µM | TGI (MALME-3M melanoma): > 100 µM | TGI (MCF7 breast): > 100 µM | TGI (MDA-MB-231 breast): > 100 µM | TGI (MDA-MB-435): < 0.01 µM | TGI (MDA-N): < 0.01 µM | TGI (MOLT-4 leukemia): 51.6 µM | TGI (NCI-H226 lung): 1.17 µM | TGI (NCI-H23 lung): 1.35 µM | TGI (NCI-H460 lung): 3.23 µM | TGI (NCI-H522 lung): 0.074 µM | TGI (NCI/ADR-RES ovarian): 3.71 µM | TGI (OVCAR-3 ovarian): 1.23 µM | TGI (OVCAR-4 ovarian): > 100 µM | TGI (OVCAR-5 ovarian): > 95.9 µM | TGI (OVCAR-8 ovarian): 9.1 µM | TGI (PC-3 prostate): > 36.9 µM | TGI (RPMI-8226 leukemia): > 100 µM | TGI (RXF 393 renal): 6.65 µM | TGI (RXF-631 renal): > 6.91 µM | TGI (SF-268 CNS): 77.9 µM | TGI (SF-295 CNS): 3.03 µM | TGI (SF-539 CNS): 0.056 µM | TGI (SK-MEL-2 melanoma): 6.58 µM | TGI (SK-MEL-28 melanoma): > 100 µM | TGI (SK-MEL-5 melanoma): 0.216 µM | TGI (SK-OV-3 ovarian): 13.9 µM | TGI (SN12C renal): > 96.1 µM | TGI (SNB-19 CNS): > 86.9 µM | TGI (SNB-75 CNS): 15.1 µM | TGI (SNB-78 CNS): > 4.64 µM | TGI (SR leukemia): 2.68 µM | TGI (SW-620 colon): > 100 µM | TGI (T-47D breast): > 100 µM | TGI (TK-10 renal): > 100 µM | TGI (U251 CNS): 16.5 µM | TGI (UACC-257 melanoma): > 100 µM | TGI (UACC-62 melanoma): > 100 µM | TGI (UO-31 renal): > 81 µM | TGI (XF 498 CNS): > 100 µM

O=C(C(=O)c1ccc(Cc2ccc(C(=O)C(=O)c3ccccc3)cc2)cc1)c1ccccc1
TGI (786-0 renal): > 100 µM | TGI (A498 renal): > 100 µM | TGI (A549 NSCLC): > 100 µM | TGI (ACHN renal): > 100 µM | TGI (CAKI-1 renal): > 100 µM | TGI (CCRF-CEM leukemia): > 100 µM | TGI (COLO 205 colon): > 100 µM | TGI (DLD-1 colon): > 100 µM | TGI (DMS 114 small cell lung): > 100 µM | TGI (DMS 273 small cell lung): > 100 µM | TGI (EKVX NSCLC): > 100 µM | TGI (HCC-2998 colon): > 100 µM | TGI (HCT-116 colon): > 100 µM | TGI (HCT-15 colon): > 100 µM | TGI (HL-60(TB) leukemia): > 100 µM | TGI (HOP-18 NSCLC): > 100 µM | TGI (HOP-62 NSCLC): > 100 µM | TGI (HOP-92 NSCLC): > 100 µM | TGI (HT29 colon): > 100 µM | TGI (IGROV1 ovarian): > 100 µM | TGI (K-562 leukemia): > 100 µM | TGI (KM12 colon): > 100 µM | TGI (KM20L2 colon): > 100 µM | TGI (LOX IMVI melanoma): > 100 µM | TGI (LXFL 529 NSCLC): > 100 µM | TGI (M14 melanoma): > 100 µM | TGI (M19-MEL melanoma): > 100 µM | TGI (MALME-3M melanoma): > 100 µM | TGI (NCI-H226 lung): > 100 µM | TGI (NCI-H23 lung): > 100 µM | TGI (NCI-H460 lung): > 100 µM | TGI (NCI-H522 lung): > 100 µM | TGI (OVCAR-3 ovarian): > 100 µM | TGI (OVCAR-4 ovarian): > 100 µM | TGI (OVCAR-5 ovarian): > 100 µM | TGI (OVCAR-8 ovarian): > 100 µM | TGI (RXF 393 renal): > 100 µM | TGI (RXF-631 renal): > 100 µM | TGI (SF-268 CNS): > 100 µM | TGI (SF-295 CNS): > 100 µM | TGI (SF-539 CNS): > 100 µM | TGI (SK-MEL-2 melanoma): > 100 µM | TGI (SK-MEL-28 melanoma): > 100 µM | TGI (SK-MEL-5 melanoma): > 100 µM | TGI (SK-OV-3 ovarian): > 100 µM | TGI (SN12C renal): > 100 µM | TGI (SNB-19 CNS): > 100 µM | TGI (SNB-75 CNS): > 100 µM | TGI (SNB-78 CNS): > 100 µM | TGI (SW-620 colon): > 100 µM | TGI (TK-10 renal): > 100 µM | TGI (U251 CNS): > 100 µM | TGI (UACC-257 melanoma): > 100 µM | TGI (UACC-62 melanoma): > 100 µM | TGI (UO-31 renal): > 100 µM
